Drawing on patent publication US11358952B2, “Substituted 4-aminoisoindoline-1,3-dione compounds, compositions thereof, and methods of treatment therewith” (Celgene Corporation, priority 2018, dated 2022), this text covers IC50 for 22 molecules.

pIC50: −log10 of the molar value.

In this experiment the test system is SU-DHL-4 cell line. In words: SU-DHL-4 cell proliferation assay (Cell Titer-Glo viability). In kind it is cell-based. As to conditions: Homo sapiens; cell viability IC50 activity level, DLBCL cell line SU-DHL-4, 120 hours post-treatment; read-out: SU-DHL-4 Act. Put shortly:
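SU-DHL-4 cells (500/well, RPMI-1640 + 10% FBS) exposed to 20-point compound dilutions (0.5 nM–10 μM, 0.1% DMSO) for 120 h at 37°C, 5% CO2. Viability measured by Cell Titer-Glo luminescence at t0 and at 120 h. IC50 is the concentration giving 50% of DMSO control, from a four-parameter logistic fit.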
A general note: Cellular ATP, detected with luciferase, serves as a proxy for viable cell number.
Turning to `Cc1cc(CNc2cccc3c2C(=O)N(C2CCC(=O)NC2=O)C3=O)ccc1CN1CCN(c2ccc(C#N)cn2)CC1` (stereo not shown) [Cpd 63, 6-(4-(4-((2-(2,6-dioxopiperidin-3-yl)-1,3-dioxoisoindolin-4-ylamino)methyl)-2-methylbenzyl)piperazin-1-yl)nicotinonitrile], the pIC50 is over 6.70. On to `O=C1CCC(N2C(=O)c3cccc(NCc4ccc(CN5CC6CC(c7ccc(F)cc7)CC6C5)cc4)c3C2=O)C(=O)N1` [Cpd 64, 2-(2,6-dioxopiperidin-3-yl)-4-(4-(((3aR,5r,6aS)-5-(4-fluorophenyl)hexahydrocyclopenta [c]pyrrol-2-(1H)-yl)methyl)benzylamino)isoindoline-1,3-dione], for which the pIC50 is 6.30 to 6.70.

Take `Cc1cc(CNc2cccc3c2C(=O)N(C2CCC(=O)NC2=O)C3=O)ccc1CN1CCN(CC2CC2)CC1` (stereo not shown) [Cpd 65, 4-(4-((4-(cyclopropylmethyl)piperazin-1-yl)methyl)-3-methylbenzylamino)-2-(2,6-dioxopiperidin-3-yl)isoindoline-1,3-dione]: the pIC50 is 6.30 to 6.70.

`Cc1cc(CNc2cccc3c2C(=O)N(C2CCC(=O)NC2=O)C3=O)ccc1CN1CCN(C2CC2)CC1` (stereo not shown) [Cpd 66, 4-(4-((4-cyclopropylpiperazin-1-yl)methyl)-3-methylbenzylamino)-2-(2,6-dioxopiperidin-3-yl)isoindoline-1,3-dione]: the pIC50 was over 6.70.

Turning to `Cc1cc(C#N)ccc1N1CCN(Cc2ccc(CNc3cccc4c3C(=O)N(C3CCC(=O)NC3=O)C4=O)cc2)[C@H](C)C1` (stereo partly drawn) [Cpd 67, 4-((3R)-4-(4-((2-(2,6-dioxopiperidin-3-yl)-1,3-dioxoisoindolin-4-ylamino)methyl)benzyl)-3-methylpiperazin-1-yl)-3-methylbenzonitrile], the pIC50 is over 6.70. With `Cc1cc(CNc2cccc3c2C(=O)N(C2CCC(=O)NC2=O)C3=O)ccc1CN1CCN(C(C)(C)C)CC1` (stereo not shown) [Cpd 68, 4-(4-((4-tert-butylpiperazin-1-yl)methyl)-3-methylbenzylamino)-2-(2,6-dioxopiperidin-3-yl)isoindoline-1,3-dione] the figure was over 6.70. With `Cc1cc(CNc2cccc3c2C(=O)N(C2CCC(=O)NC2=O)C3=O)ccc1CN1CCN(C(C)C)CC1` (stereo not shown) [Cpd 69, 2-(2,6-dioxopiperidin-3-yl)-4-(4-((4-isopropylpiperazin-1-yl)methyl)-3-methylbenzylamino)isoindoline-1,3-dione] the figure was over 6.70; with `Cc1cc(CNc2cccc3c2C(=O)N(C2CCC(=O)NC2=O)C3=O)ccc1CN1CCN(C2CCC2)CC1` (stereo not shown) [Cpd 70, 4-(4-((4-cyclobutylpiperazin-1-yl)methyl)-3-methylbenzylamino)-2-(2,6-dioxopiperidin-3-yl)isoindoline-1,3-dione], over 6.70; with `CC(N1CCN(Cc2ccc(CNc3cccc4c3C(=O)N(C3CCC(=O)NC3=O)C4=O)cc2)CC1)C(F)(F)F` (stereo not shown) [Cpd 71, 2-(2,6-dioxopiperidin-3-yl)-4-(4-((4-(1,1,1,-trifluoropropan-2-yl)piperazin-1-yl)methyl)benzylamino)isoindoline-1,3-dione], over 6.70.

As for `O=C1CCC(N2C(=O)c3cccc(NCc4ccc(CN5CC6(CCCCC6)C5)cc4)c3C2=O)C(=O)N1` (stereo not shown) [Cpd 72, 4-(4-(2-azaspiro[3.5]nonan-2-ylmethyl)benzylamino)-2-(2,6-dioxopiperidin-3-yl)isoindoline-1,3-dione], the pIC50 is 6.30 to 6.70.

As for `O=C1CCC(N2C(=O)c3cccc(NCc4ccc(CN5CCC6(CCC6)C5)cc4)c3C2=O)C(=O)N1` (stereo not shown) [Cpd 73, 4-(4-(6-azaspiro[3.4]octan-6-ylmethyl)benzylamino)-2-(2,6-dioxopiperidin-3-yl)isoindoline-1,3-dione], the pIC50 is 6.00 to 6.12. With `N#Cc1ccc(OC2CN(Cc3ccc(CNc4cccc5c4C(=O)N(C4CCC(=O)NC4=O)C5=O)cc3)C2)cc1` (stereo not shown) [Cpd 74, 4-(1-(4-((2-(2,6-dioxopiperidin-3-yl)-1,3-dioxoisoindolin-4-ylamino)methyl)benzyl)azetidin-3-yloxy)benzonitrile] the figure was 6.12 to 6.30; with `Cc1cc(CNc2cccc3c2C(=O)N(C2CCC(=O)NC2=O)C3=O)ccc1CN1CC2(CCCCC2)C1` (stereo not shown) [Cpd 75, 4-(4-(2-azaspiro[3.5]nonan-2-ylmethyl)-3-methylbenzylamino)-2-(2,6-dioxopiperidin-3-yl)isoindoline-1,3-dione], over 6.70; with `Cc1cc(CNc2cccc3c2C(=O)N(C2CCC(=O)NC2=O)C3=O)ccc1CN1CCC2(CCC2)C1` (stereo not shown) [Cpd 76, 4-(4-(6-azaspiro[3.4]octan-6-ylmethyl)-3-methylbenzylamino)-2-(2,6-dioxopiperidin-3-yl)isoindoline-1,3-dione], 6.30 to 6.70. Turning to `Cc1cc(CNc2cccc3c2C(=O)N(C2CCC(=O)NC2=O)C3=O)ccc1CN1CC(n2cccn2)C1` (stereo not shown) [Cpd 77, 4-(4-((3-(1H-pyrazol-1-yl)azetidin-1-yl)methyl)-3-methylbenzylamino)-2-(2,6-dioxopiperidin-3-yl)isoindoline-1,3-dione], the pIC50 is 6.30 to 6.70. With `Cc1cc(CNc2cccc3c2C(=O)N(C2CCC(=O)NC2=O)C3=O)ccc1CN1CCC(OC(C)C)CC1` (stereo not shown) [Cpd 78, 2-(2,6-dioxopiperidin-3-yl)-4-(4-((4-isopropoxypiperidin-1-yl)methyl)-3-methylbenzylamino)isoindoline-1,3-dione] the figure was over 6.70. As for `Cc1cc(CNc2cccc3c2C(=O)N(C2CCC(=O)NC2=O)C3=O)ccc1CN1CCC(C(=O)N(C)C)CC1` (stereo not shown) [Cpd 79, 1-(4-((2-(2,6-dioxopiperidin-3-yl)-1,3-dioxoisoindolin-4-ylamino)methyl)-2-methylbenzyl)-N,N-dimethylpiperidine-4-carboxamide], the pIC50 was 6.30 to 6.70.

As for `Cc1cc(CNc2cccc3c2C(=O)N(C2CCC(=O)NC2=O)C3=O)ccc1CN1CC(c2cccnc2)C1` (stereo not shown) [Cpd 80, 2-(2,6-dioxopiperidin-3-yl)-4-(3-methyl-4-((3-(pyridin-3-yl)azetidin-1-yl)methyl)benzylamino)isoindoline-1,3-dione], the pIC50 was over 6.70. On to `Cc1cc(CNc2cccc3c2C(=O)N(C2CCC(=O)NC2=O)C3=O)ccc1CN1CC(c2ccccn2)C1` (stereo not shown) [Cpd 81, 2-(2,6-dioxopiperidin-3-yl)-4-(3-methyl-4-((3-(pyridin-2-yl)azetidin-1-yl)methyl)benzylamino)isoindoline-1,3-dione], for which the pIC50 is 6.30 to 6.70. With `Cc1cc(CNc2cccc3c2C(=O)N(C2CCC(=O)NC2=O)C3=O)ccc1CN1CC(Oc2ccccc2)C1` (stereo not shown) [Cpd 82, 2-(2,6-dioxopiperidin-3-yl)-4-(3-methyl-4-((3-phenoxyazetidin-1-yl)methyl)benzylamino)isoindoline-1,3-dione] the figure was 6.12 to 6.30; with `Cc1cc(CNc2cccc3c2C(=O)N(C2CCC(=O)NC2=O)C3=O)ccc1CN1CC(Oc2ccc(C#N)cc2)C1` (stereo not shown) [Cpd 83, 4-(1-(4-((2-(2,6-dioxopiperidin-3-yl)-1,3-dioxoisoindolin-4-ylamino)methyl)-2-methylbenzyl)azetidin-3-yloxy)benzonitrile], over 6.70.

With `CC1(C)CN(c2ccc(C#N)cn2)CCN1Cc1ccc(CNc2cccc3c2C(=O)N(C2CCC(=O)NC2=O)C3=O)cc1` (stereo not shown) [Cpd 84, 6-(4-(4-((2-(2,6-dioxopiperidin-3-yl)-1,3-dioxoisoindolin-4-ylamino)methyl)benzyl)-3,3-dimethylpiperazin-1-yl)nicotinonitrile], the pIC50 was over 6.70.
